The record followed here is patent publication US20110039762A1, “TARGETED ANTIMICROBIAL MOIETIES” (C3 JIAN, INC., priority 2009, published 2011).

Entries after “also recorded” stand apart in the source; their conditions may differ. Square brackets hold non-standard residues; d marks the D form. Ends that are not written are not given here. dOrn = NCCC[C@@H](N)C(=O)O; Aib = CC(C)(N)C(=O)O

One assay concerns microorganisms (e.g., bacteria, yeasts, fungi). Put plainly: Targeting peptide binding to target microorganisms (Table 3). As to conditions: microorganism the targeting peptide binds; binding in aqueous buffers varied by peptide solubility, preferably 1x PBS.
For the substance “1T-38 (VMFVLTRGRSPRPMIPAY; Peptide with targeting and/or antimicrobial activity) [Peptide 1T-38]”, the “Target(s)” value is recorded as “S. mutans; also recorded: S. aereus; also recorded: S. epidermidis; also recorded: C. jeikeium; also recorded: C. xerosis; also recorded: C. striatum; also recorded: P. aeruginosa”. The same measure, in the same setting: the same measure for “1T-90 (RNVIGQVL; Peptide with targeting and/or antimicrobial activity) [Peptide 1T-90]”: “S. gordonii; also recorded: S. mitis; also recorded: S. mutans; also recorded: S. oralis; also recorded: S. sanguinis”. The same measure, in the same setting: next, “1T-84 (FRKKRYGLSILLWLNAFTNLVNSIHAFYMTLF; Peptide with targeting and/or antimicrobial activity) [Peptide 1T-84]”: “S. pneumoniae”. On the same count and under the same terms, next, “CHA0 (D[dOrn]KTAA[dOrn]K; not fully specified (bridges))”: “P. fluorescens”; “1T-17 (NNAIVYIS; Peptide with targeting and/or antimicrobial activity) [Peptide 1T-17]”: “S. mutans”. Turning to “PF-055 (GHVFNGNNKRNL; Peptide with targeting and/or antimicrobial activity)”, the “Target(s)” value is reported as “S. mutans”.

Take “1T-295 (KYKLKKIIL; Peptide with targeting and/or antimicrobial activity) [Peptide 1T-295]”: the “Target(s)” value is recorded as “S. mitis; also recorded: S. salivarious; also recorded: S. sanguinis”.

On to “1T-33 (VRTLTILVIFIFNYLKSISYKLKQPFENNLAQSMISI; Peptide with targeting and/or antimicrobial activity) [Peptide 1T-33]”, for which the “Target(s)” value is reported as “S. aureus; also recorded: S. epidermidis; also recorded: C. jeikeium; also recorded: C. xerosis; also recorded: C. striatum; also recorded: P. aeruginosa”. On the same count and under the same terms, next, “TT-311 (AIFDAMHNL; Peptide with targeting and/or antimicrobial activity)”: “S. mutans; also recorded: S. sobrinus”; “PF-014 (HPTDNKHN; Peptide with targeting and/or antimicrobial activity)”: “E. coli; also recorded: C. jeikeium”; “PF-050 (SYYLKRREEKGK; Peptide with targeting and/or antimicrobial activity)”: “S. epidermidis; also recorded: M. luteus; also recorded: E. coli; also recorded: C. jeikeium”. Same read-out and setting: the same measure for “1T-99 (MKAWLGQ; Peptide with targeting and/or antimicrobial activity) [Peptide 1T-99]”: “S. gordonii; also recorded: S. mitis; also recorded: S. mutans; also recorded: S. oralis; also recorded: S. sanguinis”; for “1T-105 (GEGLPPPVLHLPPPRMSGR; Peptide with targeting and/or antimicrobial activity) [Peptide 1T-105]”: “S. epidermidis; also recorded: S. gordonii; also recorded: S. mitis; also recorded: S. mutans; also recorded: S. oralis”; for “1T-72 (EPTDGVACKER; Peptide with targeting and/or antimicrobial activity) [Peptide 1T-72]”: “P. aeruginosa”.

Still in this assay, the particulars now being: microorganism(s) the targeting peptide binds; binding in aqueous buffers depending on peptide solubility, preferably 1x PBS.
Regarding “PF-371 (TFIYNEF; Peptide with targeting and/or antimicrobial activity)”, the “Target(s)” value is “S. epidermidis; also recorded: B. fragilis; also recorded: C. jejuni”. Take “PF-244 (HMRTISYLLAFAKFSLFIPPKQSLKRL; Peptide with targeting and/or antimicrobial activity)”: the “Target(s)” value is “S. epidermidis; also recorded: M. luteus; also recorded: P. aeruginosa; also recorded: A. baumannii”. Still for that read-out and setting: the same measure for “PF-317 (LILVSDI; Peptide with targeting and/or antimicrobial activity)”: “S. mutans”. Still for that read-out and setting: the same measure for “PF-239 (PKHNVVTGVSVDLDYKP; Peptide with targeting and/or antimicrobial activity)”: “S. mutans; also recorded: E. coli”; for “PF-165 (GPVSVVASLRRGTTVQRHSQNNHNKGKP; Peptide with targeting and/or antimicrobial activity)”: “MRSA and C. jejuni”; for “PF-338 (KGTSCPDQLSKAIRQSI; Peptide with targeting and/or antimicrobial activity)”: “S. mutans”. The same measure, in the same setting: the same measure for “PF-229 (DPILIQIGFTRFALRKAEAEKIEIQVEEGVPA; Peptide with targeting and/or antimicrobial activity)”: “S. epidermidis; also recorded: M. luteus; also recorded: P. aeruginosa; also recorded: A. baumannii”. “PF-201 (GCRPASLSDADPDGR; Peptide with targeting and/or antimicrobial activity)”: the “Target(s)” value was “S. epidermidis; also recorded: M. luteus; also recorded: E. coli; also recorded: C. albicans; also recorded: E. faecalis; also recorded: C. jeikeium; also recorded: C. jejuni”. On the same count and under the same terms, the same measure for “PF-328 (NGNEKAFSEVENLVK; Peptide with targeting and/or antimicrobial activity)”: “S. mutans”.

The assay is the same for the next values; noted with them: microorganism(s) the targeting peptide binds; peptide binding conducted in aqueous buffers varied by peptide solubility, preferably 1x PBS.
“PF-493 (PGAFFFCRGRGCWCGIGW; Peptide with targeting and/or antimicrobial activity)”: the “Target(s)” value is given as “S. mutans; also recorded: B. subtilis; also recorded: E. coli”.

For “PF-483 (EDNKDKKDKKDK; Peptide with targeting and/or antimicrobial activity)”, the “Target(s)” value was “P. mirabilis; also recorded: C. jeikeium; also recorded: C. jejuni”. On to “PF-503 (VVTLKDIVAVIEDQGYDVQ; Peptide with targeting and/or antimicrobial activity)”, for which the “Target(s)” value is listed as “S. mutans”. Regarding “PF-509 (EAKVQAKGEQIACNNY; Peptide with targeting and/or antimicrobial activity)”, the “Target(s)” value is “S. mutans; also recorded: B. subtilis; also recorded: E. coli”.

The assay is the same for the next values; noted with them: peptide binding in aqueous buffers varied by peptide solubility; preferably 1x PBS.
Regarding “PF-765 (YLYWEVEHKPIIAKRDAYYAQLRKQKEIEEGA; Peptide with targeting and/or antimicrobial activity)”, the “Target(s) (microorganisms bound by the targeting peptide)” value is “S. epidermidis and M. luteus and E. coli and MRSA and E. faecalis and C. jeikeium”. Same read-out and setting: next, “PF-789 (PRGAQSGHG; Peptide with targeting and/or antimicrobial activity)”: “Mycobacteria spp”. Same read-out and setting: next, PF-793 (YTQ[Aib]NNASAYAMLLTNKDTVP): “S. mutans”; “PF-780 (AVYDALVALAAAEHRAELATRDARAKDTYEKIGVHVVVAA; Peptide with targeting and/or antimicrobial activity)”: “Mycobacteria spp”; “PF-731 (RHKLIRLPLSESVFCFLNNPKI; Peptide with targeting and/or antimicrobial activity)”: “L. pneumophila”.

As to “PF-648 (ARRYPAAGS; Peptide with targeting and/or antimicrobial activity)”, the “Target(s) (microorganisms bound by the targeting peptide)” value was “S. mutans; also recorded: E. coli”.

As for “PF-784 (MAMTTVDNIVGLVIAVALMAFLFAALLFPEKF; Peptide with targeting and/or antimicrobial activity)”, the “Target(s) (microorganisms bound by the targeting peptide)” value is “Mycobacteria spp”.
